This is an account of results in ChEMBL document CHEMBL1201862, “PubChem BioAssay data set” (2004).

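Tested at 5 concentrations; 48 h exposure; 96-well plates; endpoints linearly interpolated, else capped at highest concentration. The concentration for 50% growth inhibition is given as GI50.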 Activity calls are given as the source filed them. Cut-off read from the data, not from the text of the source: active = GI50 up to about 1.1 µM and inactive = higher.

Test systems include NCI-H23; ACHN; HCC 2998; SF-268; Malme-3M; HOP-62; SNB-75; KM12; MOLT-4; OVCAR-8; RPMI-8226; HL-60; SK-MEL-5; UACC-257; SN12C; UACC-62; SK-MEL-2; OVCAR-5.
Test in all cases: NCI tumour cell line growth inhibition, 48 h

On to `O=c1c2cc(Br)ccc2nc(CCl)n1-c1ccc(O)c([N+](=O)[O-])c1`, for which the GI50 was 16.7 µM (inactive) in the assay with NCI-H23; 26.4 µM (inactive) in the assay on ACHN; 19.9 µM (inactive) in the assay with HCC 2998; 20.8 µM (inactive) with SF-268; 17.5 µM (inactive) with Malme-3M; 20.9 µM (inactive) with HOP-62. The GI50 in the assay on SNB-75 is 20.8 µM (inactive); in the assay with KM12, 19 µM (inactive); in the assay with MOLT-4 it was 23.1 µM (inactive); in the assay on OVCAR-8, 19.9 µM (inactive); with RPMI-8226, 25 µM (inactive); with HL-60 it was 23.2 µM (inactive). Also, the GI50 in the assay on SK-MEL-5 is 15.9 µM (inactive); in the assay on UACC-257, 19.1 µM (inactive); in the assay on SN12C it was 18.8 µM (inactive); in the assay with UACC-62, 26.6 µM (inactive); with SK-MEL-2, 16 µM (inactive); in the assay on OVCAR-5, 63.5 µM (inactive).
Consider `OCC1OC(c2nc(C3=NCCCN3)cs2)C(O)C1O` (stereo not drawn), for which the GI50 in the assay on NCI-H23, in the assay on ACHN, with HCC 2998, with SF-268, with Malme-3M and with HOP-62 was > 100 µM (inactive) each time. Besides, the GI50 with KM12 was > 10 µM (inactive); with MOLT-4, > 100 µM (inactive); in the assay on OVCAR-8, > 100 µM (inactive); with RPMI-8226, > 100 µM (inactive); in the assay with HL-60, > 100 µM (inactive); in the assay with UACC-257, > 100 µM (inactive). The GI50 with SN12C, with UACC-62, with SK-MEL-2 and in the assay on OVCAR-5 was > 100 µM (inactive) each time.
Regarding `CN(/N=C/c1cccc2cccnc12)c1ccc([N+](=O)[O-])cc1`, the GI50 in the assay with NCI-H23, in the assay with ACHN, with HCC 2998, in the assay with SF-268, in the assay with Malme-3M and with HOP-62 was > 100 µM (inactive) throughout. Also, the GI50 in the assay on SNB-75 was 21.4 µM (inactive); with KM12, > 100 µM (inactive); in the assay with MOLT-4 it was > 100 µM (inactive); with OVCAR-8, > 100 µM (inactive); in the assay with RPMI-8226, > 100 µM (inactive); in the assay with HL-60, > 100 µM (inactive). The GI50 in the assay with SK-MEL-5, in the assay with UACC-257, with SN12C, with UACC-62, in the assay with SK-MEL-2 and in the assay with OVCAR-5 was > 100 µM (inactive) in each case.
Turning to `C=C1CCc2occ(C)c2C2C1C1=C(CC(C)C1=O)C1OC12C` (stereo not drawn), the GI50 with NCI-H23, with ACHN, with HCC 2998, in the assay on SF-268, in the assay with Malme-3M and with HOP-62 was > 100 µM (inactive) in each case. The GI50 is 34.7 µM (inactive) in the assay with SNB-75; > 100 µM (inactive) with KM12; > 100 µM (inactive) with MOLT-4; > 100 µM (inactive) in the assay on OVCAR-8; 52.2 µM (inactive) with SK-MEL-5; > 100 µM (inactive) with UACC-257. In addition, the GI50 was > 100 µM (inactive) with SN12C, 52 µM (inactive) in the assay on UACC-62, > 100 µM (inactive) in the assay with SK-MEL-2 and 21.8 µM (inactive) in the assay on OVCAR-5.
Regarding `Clc1ccc(SCCSCCCCCCCCCCSCCSc2ccc(Cl)cc2)cc1`, the GI50 with NCI-H23, in the assay on ACHN, in the assay with HCC 2998, with SF-268, in the assay on Malme-3M and in the assay with HOP-62 was > 100 µM (inactive) in each case. Further, the GI50 in the assay with SNB-75, with KM12, in the assay with MOLT-4, with OVCAR-8, in the assay on RPMI-8226 and in the assay on HL-60 was > 100 µM (inactive) each time. In addition, the GI50 in the assay with SK-MEL-5, with UACC-257, in the assay with SN12C, with UACC-62, in the assay with SK-MEL-2 and in the assay with OVCAR-5 was > 100 µM (inactive) throughout.
`CN(C)c1nc(N(C)c2ccccc2)[s+]s1`: the GI50 in the assay with NCI-H23 was 65.6 µM (inactive); with ACHN, > 100 µM (inactive); with HCC 2998, > 100 µM (inactive); in the assay on SF-268 it was 63.5 µM (inactive); in the assay on Malme-3M, 60.4 µM (inactive); in the assay with HOP-62, > 100 µM (inactive). Besides, the GI50 in the assay on SNB-75 is 83.2 µM (inactive); with KM12, 36.3 µM (inactive); with OVCAR-8, 66.7 µM (inactive); with HL-60 it was 15.7 µM (inactive); with SK-MEL-5, 36.5 µM (inactive); with UACC-257 it was 54.2 µM (inactive). Besides, the GI50 with SN12C is 44.8 µM (inactive); with UACC-62, 12.3 µM (inactive); in the assay on SK-MEL-2, > 100 µM (inactive); in the assay on OVCAR-5 it was > 100 µM (inactive).
Consider `COc1ccc(OC)c(NCC#N)c1`, for which the GI50 in the assay on NCI-H23, in the assay with ACHN, in the assay on HCC 2998, with SF-268, in the assay on Malme-3M and in the assay with HOP-62 was > 100 µM (inactive) in each case. Also, the GI50 in the assay on SNB-75, in the assay with KM12, with MOLT-4, in the assay with OVCAR-8, in the assay with RPMI-8226 and in the assay on HL-60 was > 100 µM (inactive) each time. Moreover, the GI50 in the assay on SK-MEL-5, in the assay with UACC-257, in the assay on SN12C, in the assay on UACC-62 and with SK-MEL-2 was > 100 µM (inactive) throughout.
For `CC(=O)OCCOCNC(=S)N/N=C/c1cc([N+](=O)[O-])ccc1O`, the GI50 was > 100 µM (inactive) in the assay on NCI-H23; > 100 µM (inactive) in the assay on ACHN; 72.1 µM (inactive) in the assay with HCC 2998; 77.4 µM (inactive) with SF-268; > 100 µM (inactive) in the assay with Malme-3M; > 100 µM (inactive) in the assay on HOP-62. Moreover, the GI50 was > 100 µM (inactive) in the assay on SNB-75; > 100 µM (inactive) in the assay on KM12; 90.2 µM (inactive) with OVCAR-8; > 100 µM (inactive) with HL-60; > 100 µM (inactive) in the assay on SK-MEL-5; > 100 µM (inactive) in the assay on UACC-257. The GI50 in the assay on SN12C was > 100 µM (inactive); with UACC-62 it was 69.8 µM (inactive); in the assay on SK-MEL-2, > 100 µM (inactive); in the assay on OVCAR-5, > 100 µM (inactive).
For `C[P+]1(c2ccccc2)CCCCC1`, the GI50 in the assay on NCI-H23, in the assay with ACHN, in the assay with HCC 2998, in the assay with SF-268, in the assay on Malme-3M and in the assay with HOP-62 was > 100 µM (inactive) each time. In addition, the GI50 in the assay with SNB-75, in the assay with KM12, with MOLT-4, with OVCAR-8, in the assay on RPMI-8226 and in the assay with SK-MEL-5 was > 100 µM (inactive) throughout. Moreover, the GI50 with UACC-257, with SN12C, in the assay on UACC-62, with SK-MEL-2 and with OVCAR-5 was > 100 µM (inactive) in each case.
Regarding `C=CCCC12CCCC(=O)C1Sc1ccc3ccccc3c12` (stereo not drawn), the GI50 in the assay on NCI-H23 is 19.7 µM (inactive); in the assay on ACHN it was 24.8 µM (inactive); in the assay with HCC 2998, 14.1 µM (inactive); in the assay with SF-268, 31.3 µM (inactive); in the assay with Malme-3M, 16.4 µM (inactive); in the assay on HOP-62, 19.8 µM (inactive). In addition, the GI50 was 22.8 µM (inactive) with SNB-75; 7.38 µM (inactive) in the assay on KM12; 13.2 µM (inactive) in the assay on MOLT-4; 32.1 µM (inactive) in the assay with OVCAR-8; 12.9 µM (inactive) in the assay with RPMI-8226; 7.08 µM (inactive) with HL-60. The GI50 is > 10 µM (inactive) with SK-MEL-5; 17.1 µM (inactive) in the assay with UACC-257; 14.6 µM (inactive) in the assay on SN12C; 11.9 µM (inactive) in the assay on UACC-62; 13.4 µM (inactive) in the assay on SK-MEL-2; 27.5 µM (inactive) in the assay on OVCAR-5.
As for `C=CCC1[C@@H](C(C)(C)C(C(C)=O)C(=O)C(=O)OC)OC(C(C)(C)C)N1C(=O)OC` (stereo partly drawn), the GI50 in the assay with NCI-H23, with ACHN, in the assay with HCC 2998, in the assay with SF-268, in the assay on Malme-3M and with HOP-62 was > 100 µM (inactive) each time. Besides, the GI50 in the assay on SNB-75 was 80.4 µM (inactive); with KM12, > 100 µM (inactive); in the assay with MOLT-4, 24.6 µM (inactive); in the assay with OVCAR-8, > 100 µM (inactive); in the assay on SK-MEL-5, > 100 µM (inactive); in the assay with UACC-257, > 100 µM (inactive). In addition, the GI50 with SN12C was > 100 µM (inactive); with UACC-62 it was > 100 µM (inactive); in the assay with SK-MEL-2 it was > 100 µM (inactive); in the assay with OVCAR-5, 61.5 µM (inactive).
For the molecule `COc1cc2c(c(OC)c1OC)-c1ccc(OC)c(=O)cc1[C@@H](N(C)C=O)CC2`, the GI50 was 0.0168 µM (active) in the assay with NCI-H23; 0.0802 µM (active) in the assay with ACHN; 0.0168 µM (active) in the assay on HCC 2998; 0.0219 µM (active) in the assay with SF-268; 0.0184 µM (active) in the assay on Malme-3M; < 0.0164 µM (active) in the assay on HOP-62. The GI50 in the assay on SNB-75 is < 0.01 µM (active); with KM12 it was < 0.01 µM (active); with MOLT-4, 0.0212 µM (active); with OVCAR-8 it was 0.0218 µM (active); in the assay with RPMI-8226, 0.0249 µM (active); in the assay with HL-60 it was 0.0158 µM (active). For the same molecule, the GI50 in the assay on SK-MEL-5 is < 0.01 µM (active); with SN12C, 0.0329 µM (active); with UACC-62, 0.0177 µM (active); with SK-MEL-2, 0.0135 µM (active); in the assay with OVCAR-5 it was > 8.51 µM (inactive).
